Measurements reported in PubChem BioAssay AID1963864 (Molecular Pharmacology Branch, DTP, NCI, 2024).

Test system: KRAS PDC multicell spheroid viability
Assay: Anticancer human tumor 521955-158-R6-J3-PDC patient-derived pancreatic carcinoma cell line growth inhibition [KRAS2]
Details: for viability, T/C: stronger effect = lower value; for IC50: curve of first compound
Description: Multicellular complex tumor spheroid response to RAS pathway inhibitors in combination with a targeted agents in patient-derived cell lines with oncogenic KRAS variants from multiple cancer types
A high-throughput screen of multi-cell type tumor spheroids was designed to identify active combinations of targeted small molecules and KRAS pathway inhibitors. Complex spheroids include a stromal component modeled by human endothelial cells (HUVEC) and fibroblasts modeled by human mesenchymal stem cells (MSCs). The concentration ranges selected for each drug and investigational agent were based upon clinically achievable concentrations if the clinical Cmax of the agent was known.
Compounds. The drugs and investigational agents: BI-3406 (NSC825286), BAY-293 (NSC824723), batoprotafib (TNO155; NSC825523), sotorasib (AMG 510; NSC818433), MRTX1257 (NSC819558), elimusertib (BAY 1895344; NSC800525), molibresib (GSK525762; NSC774829), temuterkib (LY3214996; NSC803410), venetoclax (NSC766270), alisertib (NSC759677), olaparib (NSC753686), talazoparib (NSC767125), erdafitinib (NSC781556), ipatasertib (NSC767898), cabozantinib (NSC761068), nintedanib (NSC756659), abemaciclib (NSC768073), docetaxel (NSC628503), trametinib (NSC758246), and sapanisertib (NSC764658) were obtained from the National Cancer Institute (NCI) Developmental Therapeutics Program Chemical Repository. The FDA-approved anticancer drug set is available from the Developmental Therapeutics Program. […] The stock solutions were prepared in dimethyl sulfoxide (DMSO, Sigma-Aldrich, St. Louis, MO, cat. D2650) at 800-fold the tested concentration and stored at -70 degrees C prior to their use. All drugs and investigational agents were tested over a range starting from a high concentration at or near the clinical Cmax and decreasing in half-log increments. If the clinical Cmax for an agent had not been determined, the highest concentration tested was 10 microM.
Cell Culture. All cells were maintained in an incubator at 37 degrees C and 5% CO2 with 95% humidity. The PDC lines were cultured according to standard operating procedures established by the NCI PDMR (https://pdmr.cancer.gov/sops/default.htm). Briefly, all PDCs were thawed and cultured in Matrigel-coated flasks prepared with a working solution of 1X Ham's F-12 nutrient mix, without supplementation (Invitrogen, Waltham, MA, cat. 11765054), 100 U/mL penicillin-streptomycin (Invitrogen, cat. 15140122), and 2.5% Matrigel (Corning Inc., Corning, NY, cat. 354248) for the first three passages. All PDCs were cultured in complete DMEM/F-12 media containing advanced DMEM/F-12 (Invitrogen, cat. 12634028), 4.9% defined fetal bovine serum, heat inactivated (HyClone Laboratories Inc., Logan, UT, cat. SH30070.03HI), 389 ng/mL hydrocortisone (Sigma-Aldrich, cat. H4001), 9.7 ng/mL human EGF recombinant protein (Invitrogen, cat. PHG0313), 23.4 microg/mL adenine (Sigma-Aldrich, cat. A2786), 97.3 U/mL penicillin-streptomycin (Invitrogen, cat. 15140122), 1.9 mM L-glutamine (Invitrogen, cat. 25030081), and 9.7 microM Y-27632 dihydrochloride (Tocris Bioscience, Bristol, United Kingdom, cat. 1254). The PDCs were cultured in complete DMEM/F12 media without 9.7 microM Y-27632 dihydrochloride for at least two passages prior to the screen. The established cell line HOP-62 was cultured in RPMI 1640 medium, HEPES (Invitrogen, cat. 22400105) with 10% defined fetal bovine serum (HyClone Laboratories Inc., cat. SH30070.03) and 2 mM L-glutamine (Invitrogen, cat. 25030081). The pooled donor HUVEC were cultured in endothelial cell growth medium 2 (PromoCell, Heidelberg, Germany, cat. C-22011) and the hMSC were cultured in mesenchymal stem cell growth medium 2 (PromoCell, cat. C-28009). For all experiments, HUVEC and hMSC were used at passages </=5, while the malignant cell lines were used at passages </=15. […]

[1] = second compound 0.1 µM, first compound 0.0316 µM
[2] = second compound 0.316 µM, first compound 0.0316 µM
[3] = second compound 1 µM, first compound 0.0316 µM
[4] = second compound 3.16 µM, first compound 0.0316 µM
[5] = second compound 10 µM, first compound 0.0316 µM
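Also: drug exposure lasted seven days.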
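For viability, T/C in this document: 100% = DMSO vehicle wells and lower means fewer viable cells.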

Structure (SMILES): CC(=O)Nc1cccc(-n2c(=O)n(C3CC3)c(=O)c3c(Nc4ccc(I)cc4F)n(C)c(=O)c(C)c32)c1
- viability, T/C (compound 0.0001 µM): 95.7% [middle of 5 runs]
- viability, T/C (compound 0.000316 µM): 99.3% [middle of 5 runs]
- viability, T/C (compound 0.00316 µM): 85.6% [middle of 5 runs]
- viability, T/C (compound 0.01 µM): 72.2% [middle of 5 runs]
- viability, T/C (compound 0.0316 µM): 44% [middle of 5 runs]

Structure (SMILES): CC1OCC2(CCN(c3cnc(Sc4ccnc(N)c4Cl)c(N)n3)CC2)C1N (stereo not given) + C=CC(=O)N1CCN(c2nc(=O)n(-c3c(C)ccnc3C(C)C)c3nc(-c4c(O)cccc4F)c(F)cc23)C(C)C1
- IC50 (second compound 0.1 µM): > 10000 nM
- IC50 (second compound 0.316 µM): > 10000 nM
- IC50 (second compound 1 µM): > 10000 nM
- IC50 (second compound 3.16 µM): > 10000 nM
- IC50 (second compound 10 µM): > 10000 nM
- viability, T/C [1]: 99.6%
- viability, T/C (second compound 0.1 µM, first compound 0.1 µM): 93.6%
- viability, T/C (second compound 0.1 µM, first compound 0.316 µM): 99.6%
- viability, T/C (second compound 0.1 µM, first compound 1 µM): 92%
- viability, T/C (second compound 0.1 µM, first compound 3.16 µM): 106%
- viability, T/C (second compound 0.1 µM, first compound 10 µM): 128%
- viability, T/C [2]: 97.3%
- viability, T/C (second compound 0.316 µM, first compound 0.1 µM): 94.4%
- viability, T/C (second compound 0.316 µM, first compound 0.316 µM): 91.9%
- viability, T/C (second compound 0.316 µM, first compound 1 µM): 96%
- viability, T/C (second compound 0.316 µM, first compound 3.16 µM): 113%
- viability, T/C (second compound 0.316 µM, first compound 10 µM): 116%
- viability, T/C [3]: 98.7%
- viability, T/C (second compound 1 µM, first compound 0.1 µM): 103%
- viability, T/C (second compound 1 µM, first compound 0.316 µM): 102%
- viability, T/C (second compound 1 µM, first compound 1 µM): 90.4%
- viability, T/C (second compound 1 µM, first compound 3.16 µM): 124%
- viability, T/C (second compound 1 µM, first compound 10 µM): 120%
- viability, T/C [4]: 97.7%
- viability, T/C (second compound 3.16 µM, first compound 0.1 µM): 95.9%
- viability, T/C (second compound 3.16 µM, first compound 0.316 µM): 91.8%
- viability, T/C (second compound 3.16 µM, first compound 1 µM): 81.3%
- viability, T/C (second compound 3.16 µM, first compound 3.16 µM): 106%
- viability, T/C (second compound 3.16 µM, first compound 10 µM): 108%
- viability, T/C [5]: 75%
- viability, T/C (second compound 10 µM, first compound 0.1 µM): 75%
- viability, T/C (second compound 10 µM, first compound 0.316 µM): 62.5%
- viability, T/C (second compound 10 µM, first compound 1 µM): 54.8%
- viability, T/C (second compound 10 µM, first compound 3.16 µM): 70.4%
- viability, T/C (second compound 10 µM, first compound 10 µM): 79%

Structure (SMILES): CC(=O)Nc1cccc(-n2c(=O)n(C3CC3)c(=O)c3c(Nc4ccc(I)cc4F)n(C)c(=O)c(C)c32)c1 + CNCc1ccccc1-c1csc(C(C)Nc2nc(C)nc3cc(OC)c(OC)cc23)c1
- IC50 (second compound 0.1 µM): 16.7 nM
- IC50 (second compound 0.316 µM): 15.1 nM
- IC50 (second compound 1 µM): 4.73 nM
- IC50 (second compound 3.16 µM): < 0.1 nM
- IC50 (second compound 10 µM): < 0.1 nM
- viability, T/C (second compound 0.1 µM, first compound 0.0001 µM): 84.3%
- viability, T/C (second compound 0.1 µM, first compound 0.000316 µM): 83.3%
- viability, T/C (second compound 0.1 µM, first compound 0.001 µM): 88.9%
- viability, T/C (second compound 0.1 µM, first compound 0.00316 µM): 75%
- viability, T/C (second compound 0.1 µM, first compound 0.01 µM): 60.7%
- viability, T/C [1]: 37.4%
- viability, T/C (second compound 0.316 µM, first compound 0.0001 µM): 70.3%
- viability, T/C (second compound 0.316 µM, first compound 0.000316 µM): 90.2%
- viability, T/C (second compound 0.316 µM, first compound 0.001 µM): 80.8%
- viability, T/C (second compound 0.316 µM, first compound 0.00316 µM): 72.4%
- viability, T/C (second compound 0.316 µM, first compound 0.01 µM): 60%
- viability, T/C [2]: 33.2%
- viability, T/C (second compound 1 µM, first compound 0.0001 µM): 69.1%
- viability, T/C (second compound 1 µM, first compound 0.000316 µM): 76.6%
- viability, T/C (second compound 1 µM, first compound 0.001 µM): 65.9%
- viability, T/C (second compound 1 µM, first compound 0.00316 µM): 58.4%
- viability, T/C (second compound 1 µM, first compound 0.01 µM): 35.3%
- viability, T/C [3]: 12.3%
- viability, T/C (second compound 3.16 µM, first compound 0.0001 µM): 1.97%
- viability, T/C (second compound 3.16 µM, first compound 0.000316 µM): 0.17%
- viability, T/C (second compound 3.16 µM, first compound 0.001 µM): 7.16%
- viability, T/C (second compound 3.16 µM, first compound 0.00316 µM): 2.18%
- viability, T/C (second compound 3.16 µM, first compound 0.01 µM): 8.31%
- viability, T/C [4]: 1.89%
- viability, T/C (second compound 10 µM, first compound 0.0001 µM): 2.4%
- viability, T/C (second compound 10 µM, first compound 0.000316 µM): 1.9%
- viability, T/C (second compound 10 µM, first compound 0.001 µM): 0.16%
- viability, T/C (second compound 10 µM, first compound 0.00316 µM): 0.16%
- viability, T/C (second compound 10 µM, first compound 0.01 µM): 4.06%
- viability, T/C [5]: 0.45%
